Measured values published in paper PMC12586182 (Frontiers in Oncology, 2025).

Tests used:
Assay in all cases: Kinase panel profiling at 1 µmol/L (mobility shift assay, Carna)
Format in all cases: biochemical
Conditions in all cases: 1 µmol/L of BTK inhibitor
EPHB3 = target: T1, EPHB3 (Homo sapiens, UniProt P54753)
T1 construct: purchased Carna Biosciences
T1 sequence (P54753 34-998): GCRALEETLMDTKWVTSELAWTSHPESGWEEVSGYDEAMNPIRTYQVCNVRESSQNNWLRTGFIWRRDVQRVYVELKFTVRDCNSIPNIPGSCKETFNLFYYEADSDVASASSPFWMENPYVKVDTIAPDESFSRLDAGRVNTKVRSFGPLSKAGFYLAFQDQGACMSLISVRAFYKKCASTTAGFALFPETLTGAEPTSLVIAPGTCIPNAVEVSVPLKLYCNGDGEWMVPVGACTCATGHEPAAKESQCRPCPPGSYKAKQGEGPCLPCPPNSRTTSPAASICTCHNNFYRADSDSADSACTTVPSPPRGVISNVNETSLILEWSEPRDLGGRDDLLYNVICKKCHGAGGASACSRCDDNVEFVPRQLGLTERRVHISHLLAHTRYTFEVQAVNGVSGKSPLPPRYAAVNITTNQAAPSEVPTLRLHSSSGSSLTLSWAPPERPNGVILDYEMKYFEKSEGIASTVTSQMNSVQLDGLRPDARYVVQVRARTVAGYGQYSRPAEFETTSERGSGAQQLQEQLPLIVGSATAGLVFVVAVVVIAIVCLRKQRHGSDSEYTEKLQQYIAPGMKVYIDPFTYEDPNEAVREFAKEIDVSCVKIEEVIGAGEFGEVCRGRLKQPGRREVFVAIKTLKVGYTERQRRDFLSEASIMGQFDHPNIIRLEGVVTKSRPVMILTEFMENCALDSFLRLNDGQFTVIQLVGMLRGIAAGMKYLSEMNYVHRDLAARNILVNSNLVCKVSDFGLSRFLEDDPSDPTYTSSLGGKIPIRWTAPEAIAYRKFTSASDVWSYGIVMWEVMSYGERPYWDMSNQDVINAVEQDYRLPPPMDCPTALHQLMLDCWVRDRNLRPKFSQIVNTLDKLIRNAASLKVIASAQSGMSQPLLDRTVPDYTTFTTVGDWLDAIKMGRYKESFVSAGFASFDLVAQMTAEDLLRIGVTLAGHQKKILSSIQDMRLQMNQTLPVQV

EPHB4 = target: T2, EPHB4 (Homo sapiens, UniProt P54760)
T2 construct: purchased Carna Biosciences
T2 sequence (P54760 16-987): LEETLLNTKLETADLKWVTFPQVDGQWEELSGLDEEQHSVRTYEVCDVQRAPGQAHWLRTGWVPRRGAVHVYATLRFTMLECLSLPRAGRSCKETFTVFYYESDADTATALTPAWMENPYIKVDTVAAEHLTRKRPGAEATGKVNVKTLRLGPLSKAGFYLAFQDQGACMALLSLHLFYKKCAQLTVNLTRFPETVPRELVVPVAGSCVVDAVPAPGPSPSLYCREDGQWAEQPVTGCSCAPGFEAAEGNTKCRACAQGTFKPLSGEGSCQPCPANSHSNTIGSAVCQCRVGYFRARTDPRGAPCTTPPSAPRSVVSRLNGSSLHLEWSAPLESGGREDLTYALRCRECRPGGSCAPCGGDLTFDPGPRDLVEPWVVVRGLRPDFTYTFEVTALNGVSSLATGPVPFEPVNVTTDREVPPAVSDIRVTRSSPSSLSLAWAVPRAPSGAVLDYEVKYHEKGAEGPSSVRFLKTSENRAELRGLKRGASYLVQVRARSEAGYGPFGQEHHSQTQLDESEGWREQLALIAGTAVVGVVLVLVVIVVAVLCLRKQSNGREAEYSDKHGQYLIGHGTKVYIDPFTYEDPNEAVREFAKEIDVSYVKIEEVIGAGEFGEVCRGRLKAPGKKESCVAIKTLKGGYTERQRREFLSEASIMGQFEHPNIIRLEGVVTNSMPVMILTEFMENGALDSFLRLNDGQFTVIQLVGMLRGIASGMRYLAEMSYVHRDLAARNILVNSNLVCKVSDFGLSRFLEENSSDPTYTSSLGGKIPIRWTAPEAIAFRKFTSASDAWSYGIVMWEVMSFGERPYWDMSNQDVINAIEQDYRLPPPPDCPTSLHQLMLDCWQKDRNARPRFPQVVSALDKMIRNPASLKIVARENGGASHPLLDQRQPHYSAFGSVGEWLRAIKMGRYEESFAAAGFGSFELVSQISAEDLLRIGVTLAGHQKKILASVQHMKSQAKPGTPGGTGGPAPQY

DDR1 = target: T3, DDR1 (Homo sapiens, UniProt Q08345)
T3 construct: purchased Carna Biosciences

RSK4 = target: T4, RSK4 (Homo sapiens, UniProt Q9UK32)
T4 construct: purchased Carna Biosciences

PKCι = target: T5, PKCι (Homo sapiens, UniProt P41743)
T5 construct: purchased Carna Biosciences
T5 sequence (P41743 1-596): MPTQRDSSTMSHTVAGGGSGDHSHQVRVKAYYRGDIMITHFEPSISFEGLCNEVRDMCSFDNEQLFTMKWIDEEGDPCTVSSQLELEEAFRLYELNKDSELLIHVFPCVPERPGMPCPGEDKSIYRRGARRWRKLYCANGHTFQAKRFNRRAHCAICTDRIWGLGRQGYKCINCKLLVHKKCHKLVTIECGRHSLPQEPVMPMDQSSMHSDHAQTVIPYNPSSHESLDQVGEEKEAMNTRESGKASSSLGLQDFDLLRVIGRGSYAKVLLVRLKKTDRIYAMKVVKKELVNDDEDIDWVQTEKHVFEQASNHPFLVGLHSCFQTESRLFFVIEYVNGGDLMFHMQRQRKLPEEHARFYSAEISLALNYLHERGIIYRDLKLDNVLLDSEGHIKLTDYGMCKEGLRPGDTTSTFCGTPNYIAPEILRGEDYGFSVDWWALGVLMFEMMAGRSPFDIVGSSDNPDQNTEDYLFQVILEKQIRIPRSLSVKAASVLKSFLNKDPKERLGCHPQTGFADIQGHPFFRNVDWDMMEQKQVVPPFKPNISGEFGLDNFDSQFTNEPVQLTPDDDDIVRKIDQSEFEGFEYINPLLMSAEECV

CDK2/CycA2 = target: T6, CDK2/CycA2 (Homo sapiens, UniProt P24941)
T6 construct: purchased Carna Biosciences

T3 sequence (Q08345 19-913): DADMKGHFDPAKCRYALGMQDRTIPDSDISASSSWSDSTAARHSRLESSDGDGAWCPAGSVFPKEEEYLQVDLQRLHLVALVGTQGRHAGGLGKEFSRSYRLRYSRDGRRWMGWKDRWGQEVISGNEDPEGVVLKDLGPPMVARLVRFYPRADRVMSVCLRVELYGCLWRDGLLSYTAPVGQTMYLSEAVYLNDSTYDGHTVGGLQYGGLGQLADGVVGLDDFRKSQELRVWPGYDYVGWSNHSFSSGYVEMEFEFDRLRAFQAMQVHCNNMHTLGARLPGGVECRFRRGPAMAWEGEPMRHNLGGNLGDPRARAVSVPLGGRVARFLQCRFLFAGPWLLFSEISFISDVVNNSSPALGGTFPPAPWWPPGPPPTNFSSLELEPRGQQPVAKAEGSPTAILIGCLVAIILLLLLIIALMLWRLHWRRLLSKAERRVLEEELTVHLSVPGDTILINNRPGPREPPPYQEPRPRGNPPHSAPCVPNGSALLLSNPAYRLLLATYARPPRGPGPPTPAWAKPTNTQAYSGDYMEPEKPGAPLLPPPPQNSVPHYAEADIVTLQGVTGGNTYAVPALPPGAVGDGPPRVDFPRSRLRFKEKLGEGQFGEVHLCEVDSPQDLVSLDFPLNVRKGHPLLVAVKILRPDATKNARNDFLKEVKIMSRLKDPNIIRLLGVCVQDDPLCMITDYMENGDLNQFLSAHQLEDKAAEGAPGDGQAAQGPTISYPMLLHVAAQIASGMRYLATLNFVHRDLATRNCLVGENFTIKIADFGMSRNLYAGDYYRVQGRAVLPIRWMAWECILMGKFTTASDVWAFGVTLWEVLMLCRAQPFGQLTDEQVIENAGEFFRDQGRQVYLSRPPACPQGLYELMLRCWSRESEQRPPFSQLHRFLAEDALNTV
T4 sequence (Q9UK32 whole entry): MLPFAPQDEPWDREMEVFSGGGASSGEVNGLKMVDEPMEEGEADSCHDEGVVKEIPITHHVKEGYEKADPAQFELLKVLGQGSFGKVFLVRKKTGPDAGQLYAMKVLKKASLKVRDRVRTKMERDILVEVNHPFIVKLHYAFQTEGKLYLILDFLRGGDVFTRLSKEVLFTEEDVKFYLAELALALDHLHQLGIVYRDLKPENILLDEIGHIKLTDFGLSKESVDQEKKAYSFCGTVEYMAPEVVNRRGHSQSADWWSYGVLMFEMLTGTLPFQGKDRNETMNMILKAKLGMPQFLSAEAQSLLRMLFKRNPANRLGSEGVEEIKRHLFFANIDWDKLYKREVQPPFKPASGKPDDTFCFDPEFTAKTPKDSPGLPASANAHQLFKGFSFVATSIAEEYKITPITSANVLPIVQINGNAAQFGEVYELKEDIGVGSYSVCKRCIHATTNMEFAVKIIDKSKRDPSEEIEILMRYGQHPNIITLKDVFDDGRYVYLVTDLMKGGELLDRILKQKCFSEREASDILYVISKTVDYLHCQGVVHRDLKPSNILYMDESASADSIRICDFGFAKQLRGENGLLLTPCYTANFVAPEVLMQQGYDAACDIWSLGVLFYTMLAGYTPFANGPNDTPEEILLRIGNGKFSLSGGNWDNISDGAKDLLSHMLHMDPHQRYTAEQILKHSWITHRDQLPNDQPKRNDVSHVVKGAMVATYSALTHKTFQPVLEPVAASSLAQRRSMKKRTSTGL

SMILES | Percentage inhibition of kinase enzyme activity (EPHB3) | Percentage inhibition of kinase enzyme activity (EPHB4) | Percentage inhibition of kinase enzyme activity (DDR1) | Percentage inhibition of kinase enzyme activity (RSK4) | Percentage inhibition of kinase enzyme activity (PKCι) | Percentage inhibition of kinase enzyme activity (CDK2/CycA2)
O=C(c1ccc(Oc2ccccc2)cc1Cl)c1c[nH]c2ncnc(N[C@@H]3CC[C@@H](CO)OC3)c12 [nemtabrutinib] | 73.92% | 37.75% | 93.81% | -2.32% | -1.29% | -1.69%
CC#CC(=O)N1CCC[C@H]1c1nc(-c2ccc(C(=O)Nc3ccccn3)cc2)c2c(N)nccn12 [acalabrutinib] | 1.64% | -1.45% | 7.80% | 4.21% | -8.38% | -5.19%
COc1ccc(F)cc1C(=O)NCc1ccc(-c2nn([C@@H](C)C(F)(F)F)c(N)c2C(N)=O)cc1 [pirtobrutinib] | 34.88% | 4.51% | 2.52% | -0.12% | 0.51% | -4.56%
C=CC(=O)N1CCC([C@@H]2CCNc3c(C(N)=O)c(-c4ccc(Oc5ccccc5)cc4)nn32)CC1 [zanubrutinib] | -2.82% | 12.92% | – | – | – | –
C=CC(=O)N1CCC[C@@H](n2nc(-c3ccc(Oc4ccccc4)cc3)c3c(N)ncnc32)C1 [ibrutinib] | 2.93% | 26.52% | 37.17% | 5.52% | 2.23% | -11.88%
